Target: T1, human recombinant P2X7 receptors (Homo sapiens, UniProt Q99572)
T1 construct: expressed in transfected cells
T1 sequence (Q99572 1-595): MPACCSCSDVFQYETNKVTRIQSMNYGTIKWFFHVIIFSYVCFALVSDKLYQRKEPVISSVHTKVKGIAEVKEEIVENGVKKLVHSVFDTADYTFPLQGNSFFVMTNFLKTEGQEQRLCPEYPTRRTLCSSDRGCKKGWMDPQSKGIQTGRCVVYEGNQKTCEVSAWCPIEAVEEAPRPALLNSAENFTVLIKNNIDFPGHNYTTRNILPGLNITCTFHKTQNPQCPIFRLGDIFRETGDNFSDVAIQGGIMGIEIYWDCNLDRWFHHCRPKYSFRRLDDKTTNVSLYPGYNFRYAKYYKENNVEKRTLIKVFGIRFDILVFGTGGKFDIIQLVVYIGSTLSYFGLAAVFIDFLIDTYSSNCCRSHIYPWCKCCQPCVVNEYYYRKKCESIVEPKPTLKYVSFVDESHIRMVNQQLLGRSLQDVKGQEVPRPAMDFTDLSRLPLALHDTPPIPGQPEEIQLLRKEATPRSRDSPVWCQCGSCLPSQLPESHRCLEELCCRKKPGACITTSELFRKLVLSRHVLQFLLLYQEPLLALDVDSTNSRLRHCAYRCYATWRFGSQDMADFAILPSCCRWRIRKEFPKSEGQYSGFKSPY
Test: Ethidium Accumulation Assay 1 (HEK293 cells, ATP-induced ethidium uptake)
Type: cell-based
Details: HEK293 cells expressing human P2X7; 1 mM ATP; sometimes mean of more than one measurement; read-out: Assay 1 (antagonist pIC50 for blocking ATP responses) (converted)

Compound	IC50 [nM]
O=C(c1cccc(C(F)(F)F)c1Cl)N1CCn2c(nnc2-c2ccc(F)cn2)C1 [Example 45, 7-{[2-chloro-3-(trifluoromethyl)phenyl]carbonyl}-3-(5-fluoro-2-pyridinyl)-5,6,7,8-tetrahydro[1,2,4]triazolo[4,3-a]pyrazine]	< 10
O=C(c1ccc(Cl)c(F)c1Cl)N1CCn2c(nnc2-c2cnccn2)C1 [Example 111, 7-[(2,4-Dichloro-3-fluorophenyl)carbonyl]-3-(2-pyrazinyl)-5,6,7,8-tetrahydro[1,2,4]triazolo[4,3-a]pyrazine]	< 10
O=C(c1cccc(C(F)(F)F)c1Cl)N1CCn2c(nnc2-c2cccnn2)C1 [Example 44, 7-{[2-chloro-3-(trifluoromethyl)phenyl]carbonyl}-3-(3-pyridazinyl)-5,6,7,8-tetrahydro[1,2,4]triazolo [4,3-a]pyrazine]	< 100
O=C(c1cccc(C(F)(F)F)c1Cl)N1CCn2cnnc2C1 [Example 3, 7-{[2-chloro-3-(trifluoromethyl)phenyl]carbonyl}-5,6,7,8-tetrahydro[1,2,4]triazolo [4,3-a]pyrazine]	< 501
O=C(c1ccc(F)c(Cl)c1Cl)N1CCn2c(nnc2-c2ccc(F)cn2)C1 [Example 114, 7-[(2,3-Dichloro-4-fluorophenyl)carbonyl]-3-(5-fluoro-2-pyridinyl)-5,6,7,8-tetrahydro[1,2,4]triazolo[4,3-a]pyrazine]	< 10

Target: T1, human recombinant P2X7 receptors
Test: Ethidium Accumulation Assay 2 (HEK293 cells, ATP-induced ethidium uptake)
Type: cell-based
Details: HEK293 cells expressing human P2X7; read-out: Assay 2 (antagonist pIC50 for blocking ATP responses), numeric value (converted)
Method: Eithidium Accumulation Assay 2
Human Embryonic Kidney (HEK) 293 cells, stably expressing human recombinant P2X7 receptors, were grown in poly-D-lysine pretreated 96 well plates for 24 hours at 37° C.
The cells were washed with assay buffer (100 μL), before addition of 25 μL of assay buffer and then 25 ul of assay buffer containing the putative P2X7 receptor antagonist compound. The cells were then incubated at room temperature (19-21° C.) for 30 min before addition of ATP solution (50 μM). […] Antagonist pIC50 values for blocking ATP responses were determined using iterative curve fitting techniques.

Compound	IC50 [nM]
Cc1nnsc1-c1nnc2n1CCN(C(=O)c1ccc(Cl)c(F)c1Cl)C2 [Example 179, 7-[(2,4-Dichloro-3-fluorophenyl)carbonyl]-3-(4-methyl-1,2,3-thiadiazol-5-yl)-5,6,7,8-tetrahydro[1,2,4]triazolo[4,3-a]pyrazine]	631

Same assay, conditions: HEK293 cells expressing human P2X7; sometimes mean of more than one measurement; read-out: Assay 2 (antagonist pIC50 for blocking ATP responses) (converted)

Compound	IC50 [nM]
O=C(c1cccc(C(F)(F)F)c1Cl)N1CCn2c(nnc2-c2ccc(F)cn2)C1 [Example 45, 7-{[2-chloro-3-(trifluoromethyl)phenyl]carbonyl}-3-(5-fluoro-2-pyridinyl)-5,6,7,8-tetrahydro[1,2,4]triazolo[4,3-a]pyrazine]	< 10
O=C(c1ccc(Cl)c(F)c1Cl)N1CCn2c(nnc2-c2cnccn2)C1 [Example 111, 7-[(2,4-Dichloro-3-fluorophenyl)carbonyl]-3-(2-pyrazinyl)-5,6,7,8-tetrahydro[1,2,4]triazolo[4,3-a]pyrazine]	< 10
O=C(c1cccc(C(F)(F)F)c1Cl)N1CCn2c(nnc2-c2cccnn2)C1 [Example 44, 7-{[2-chloro-3-(trifluoromethyl)phenyl]carbonyl}-3-(3-pyridazinyl)-5,6,7,8-tetrahydro[1,2,4]triazolo [4,3-a]pyrazine]	< 100
O=C(c1cccc(C(F)(F)F)c1Cl)N1CCn2cnnc2C1 [Example 3, 7-{[2-chloro-3-(trifluoromethyl)phenyl]carbonyl}-5,6,7,8-tetrahydro[1,2,4]triazolo [4,3-a]pyrazine]	< 501
O=C(c1ccc(F)c(Cl)c1Cl)N1CCn2c(nnc2-c2ccc(F)cn2)C1 [Example 114, 7-[(2,3-Dichloro-4-fluorophenyl)carbonyl]-3-(5-fluoro-2-pyridinyl)-5,6,7,8-tetrahydro[1,2,4]triazolo[4,3-a]pyrazine]	< 10
Cc1ccc(-c2nnc3n2CCN(C(=O)c2cccc(C(F)(F)F)c2Cl)C3)o1 [Example 159, 7-{[2-chloro-3-(trifluoromethyl)phenyl]carbonyl}-3-(5-methyl-2-furanyl)-5,6,7,8-tetrahydro[1,2,4]triazolo[4,3-a]pyrazine]	< 10
O=C(c1ccc(Cl)cc1Cl)N1CCn2c(nnc2-c2ccns2)C1 [Example 158, 7-[(2,4-dichlorophenyl)carbonyl]-3-(5-isothiazolyl)-5,6,7,8-tetrahydro[1,2,4]triazolo[4,3-a]pyrazine]	< 100
Cc1c(C(=O)N2CCn3c(nnc3-c3ccc(F)cn3)C2)ccc(F)c1F [Example 155, 7-[(3,4-difluoro-2-methylphenyl)carbonyl]-3-(5-fluoro-2-pyridinyl)-5,6,7,8-tetrahydro[1,2,4]triazolo[4,3-a]pyrazine]	< 100
O=C(c1ccc(Cl)c(F)c1Cl)N1CCn2c(nnc2-c2ncccc2F)C1 [Example 170, 7-[(2,4-dichloro-3-fluorophenyl)carbonyl]-3-(3-fluoro-2-pyridinyl)-5,6,7,8-tetrahydro[1,2,4]triazolo[4,3-a]pyrazine]	< 10
Cc1c(Cl)ccc(C(=O)N2CCn3c(nnc3-c3cnccn3)C2)c1Cl [Example 154, 7-[(2,4-dichloro-3-methylphenyl)carbonyl]-3-(2-pyrazinyl)-5,6,7,8-tetrahydro[1,2,4]triazolo[4,3-a]pyrazine]	< 10
O=C(c1ccc(Cl)cc1Cl)N1CCn2c(nnc2-c2cnsn2)C1 [Example 160, 7-[(2,4-dichlorophenyl)carbonyl]-3-(1,2,5-thiadiazol-3-yl)-5,6,7,8-tetrahydro[1,2,4]triazolo[4,3-a]pyrazine]	< 100
Cc1ccnc(-c2nnc3n2CCN(C(=O)c2ccc(Cl)c(F)c2Cl)C3)n1 [Example 177, 7-[(2,4-dichloro-3-fluorophenyl)carbonyl]-3-(4-methyl-2-pyrimidinyl)-5,6,7,8-tetrahydro[1,2,4]triazolo[4,3-a]pyrazine]	< 10
Cc1c(Cl)cccc1C(=O)N1CCn2c(nnc2-c2ncns2)C1 [Example 195, 7-[(3-Chloro-2-methylphenyl)carbonyl]-3-(1,2,4-thiadiazol-5-yl)-5,6,7,8-tetrahydro[1,2,4]triazolo[4,3-a]pyrazine]	< 10
O=C(c1cccc(C(F)(F)F)c1Cl)N1CCn2c(nnc2-c2cccnc2O)C1 [Example 163, 3-(7-{[2-chloro-3-(trifluoromethyl)phenyl]carbonyl}-5,6,7,8-tetrahydro[1,2,4]triazolo[4,3-a]pyrazin-3-yl)-2-pyridinol]	< 100
O=C(c1ccc(F)c(Cl)c1Cl)N1CCn2c(nnc2-c2cccnn2)C1 [Example 168, 7-[(2,3-Dichloro-4-fluorophenyl)carbonyl]-3-(3-pyridazinyl)-5,6,7,8-tetrahydro[1,2,4]triazolo[4,3-a]pyrazine]	< 100
O=C(c1cccc(Cl)c1Cl)N1CCn2c(nnc2-c2ncns2)C1 [Example 192, 7-[(2,3-Dichlorophenyl)carbonyl]-3-(1,2,4-thiadiazol-5-yl)-5,6,7,8-tetrahydro [1,2,4]triazolo[4,3-a]pyrazine]	< 10
O=C(c1ccc(Cl)c(F)c1Cl)N1CCn2c(nnc2-n2cccn2)C1 [Example 184, 7-[(2,4-Dichloro-3-fluorophenyl)carbonyl]-3-(1H-pyrazol-1-yl)-5,6,7,8-tetrahydro[1,2,4]triazolo[4,3-a]pyrazine]	< 100
Cc1scnc1-c1nnc2n1CCN(C(=O)c1ccc(Cl)cc1Cl)C2 [Example 206, 7-[(2,4-dichlorophenyl)carbonyl]-3-(5-methyl-1,3-thiazol-4-yl)-5,6,7,8-tetrahydro[1,2,4]triazolo[4,3-a]pyrazine]	< 100
O=C(c1ccc(Cl)cc1Cl)N1CCn2c(nnc2-c2ccno2)C1 [Example 157, 7-[(2,4-dichlorophenyl)carbonyl]-3-(5-isoxazolyl)-5,6,7,8-tetrahydro[1,2,4]triazolo[4,3-a]pyrazine]	< 501
O=C(c1ccc(Cl)cc1Cl)N1CCn2c(nnc2-c2ccon2)C1 [Example 161, 7-[(2,4-dichlorophenyl)carbonyl]-3-(3-isoxazolyl)-5,6,7,8-tetrahydro[1,2,4]triazolo[4,3-a]pyrazine]	< 501
Cc1c(C(=O)N2CCn3c(nnc3-c3ccc(F)cn3)C2)ccc(F)c1Cl [Example 156, 7-[(3-chloro-4-fluoro-2-methylphenyl)carbonyl]-3-(5-fluoro-2-pyridinyl)-5,6,7,8-tetrahydro[1,2,4]triazolo[4,3-a]pyrazine]	< 10
O=C(c1ccc(Cl)c(F)c1Cl)N1CCn2c(nnc2-c2csnn2)C1 [Example 189, 7-[(2,4-Dichloro-3-fluorophenyl)carbonyl]-3-(1,2,3-thiadiazol-4-yl)-5,6,7,8-tetrahydro[1,2,4]triazolo[4,3-a]pyrazine]	< 100
O=C(c1ccc(F)cc1Cl)N1CCn2c(nnc2-c2cnc(F)cn2)C1 [Example 165, 7-[(2-chloro-4-fluorophenyl)carbonyl]-3-(5-fluoro-2-pyrazinyl)-5,6,7,8-tetrahydro[1,2,4]triazolo[4,3-a]pyrazine]	< 100
O=C(c1ccc(Cl)c(F)c1Cl)N1CCn2c(nnc2-c2cscn2)C1 [Example 149, 7-[(2,4-dichloro-3-fluorophenyl)carbonyl]-3-(1,3-thiazol-4-yl)-5,6,7,8-tetrahydro[1,2,4]triazolo[4,3-a]pyrazine]	< 10
